Experimental data: patent publication US20130137724A1, “PHARMACEUTICAL COMPOSITIONS COMPRISING 7-(1H-IMIDAZOL-4-YLMETHYL)-5,6,7,8-TETRAHYDRO-QUINOLINE FOR RETINAL NEUROPROTECTION” (ALLERGAN, INC., priority 2011, published 2013)

Assays:
alpha 2A receptor = target: T1, alpha 2A receptor (Homo sapiens, UniProt P08913); assay: biochemical
T1 sequence (P08913 1-465): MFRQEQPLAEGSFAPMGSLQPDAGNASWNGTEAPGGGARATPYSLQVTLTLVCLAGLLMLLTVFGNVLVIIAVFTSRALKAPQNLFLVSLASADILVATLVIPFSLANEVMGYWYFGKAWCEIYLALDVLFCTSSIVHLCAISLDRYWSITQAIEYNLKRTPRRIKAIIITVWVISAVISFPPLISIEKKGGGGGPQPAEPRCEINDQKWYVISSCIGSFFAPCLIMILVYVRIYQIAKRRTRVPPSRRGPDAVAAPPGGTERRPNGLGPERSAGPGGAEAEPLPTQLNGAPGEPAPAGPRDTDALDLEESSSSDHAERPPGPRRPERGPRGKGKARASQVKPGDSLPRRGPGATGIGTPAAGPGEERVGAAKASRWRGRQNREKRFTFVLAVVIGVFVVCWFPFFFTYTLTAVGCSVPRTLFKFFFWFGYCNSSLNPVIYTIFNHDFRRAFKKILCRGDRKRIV
Procedure: The extent of binding is a measure of receptor activation. […] Membranes were thawed and resuspended using a Polytron disrupter in 4° C. membrane buffer and quantified via Bradford assay. […] The above mixture was then aliquoted, 50 μL/well, in a 96 well plate, combined with an equal volume of test compound dissolved in assay buffer [50 mM Tris-HCl, 100 mM NaCl, 5 mM MgCl2, 1 mM EDTA, and 1 mM DTT, pH 7.4 and 4° C.], and allowed to incubate for 5 minutes. […] Assays were terminated by vacuum filtration over GF/B filters blocked with 0.5% BSA.

[1] = system: blue light induced retinal damage; assay: Blue light model of retinal degeneration, retinal thickness by OCT; assay type: in vivo, rat; conditions: subcutaneous pump 0.3 and 1 mg/kg/day from two days before exposure, OCT 7 days post blue light, Sprague-Dawley rats
Procedure: Twenty 4-month old male Sprague-Dawley rats (body weight 470-550 g) were used in this study. The animals were exposed to room light on a 12 hour light/12 hour dark cycle before the experiment. All animals were dark adapted overnight (16-20 hours) before blue light. Under the intensity of 6100-6500 lux, rats were exposed to blue light for 4 hours. After the blue light, rats were placed in the dark for another 3 days before returning to normal 12 hour light/12 hour dark. Ocular Coherence Tomography (OCT) measurement was performed at 7 days post blue light exposure.
Histology studies have shown that the reduction in retinal thickness is attributable to loss of photoreceptors.

α2A-adrenergic receptor = target: T2, α2A-adrenergic receptor (Homo sapiens, UniProt P08913); conditions: for Percent of Bmax Decrease: 1 μM compound, 24 hours, HEK 293T cells stably transfected with α2A-adrenergic receptor; for down-regulation of alpha2A receptor / receptor density: binding studies, result in words
T2 sequence (P08913 1-465): T1 sequence (P08913 1-465)
Procedure: Human embryonic kidney (HEK) 293T cells stably transfected with the α2A-adrenergic receptor were grown to 50-60% confluency on T-175 culture flasks in DMEM (Gibco, cat. #11995), 10% FBS (Gibco, cat. #16140), 0.25 ug/mL puromycin (Sigma, cat. #P-8833), and 1% antibiotic-antimycotic (Gibco, cat. #15240) maintained at 37° C. and 5% CO2. […] The cells were then washed with room temperature Dulbecco's phosphate buffered saline (DPBS; Gibco, cat. #14190).
Cells were harvested with 4° C. Tris-EDTA buffer [50 mM Tris-HCl, 5 mM EDTA; pH 7.4] and centrifuged at 5,000×g for 5 minutes at 4° C. Membrane preparation was conducted by resuspending the cell pellets in 4° C. Tris-EDTA buffer and lysed with a Polytron disrupter two times (setting 7, 5 seconds each). The lysed suspension was then centrifuged at ˜35,000×g for 32 minutes at 4° C. After decanting the supernatant, the pelleted material was further lysed in 4° C. Tris buffer [50 mM Tris-HCl; pH 8.0] using the Polytron disrupter (setting 4, 5 seconds). Membranes were then aliquoted, pelleted at ˜37,000×g for 32 minutes at 4° C., and stored at −80° C. until use.
Membranes were thawed and resuspended using a Polytron disrupter in 4° C. HBSS-HEPES buffer [1 part 1M HEPES: 5 parts 10× Hank's Balanced Salt Solution: 43.8 parts H2O; pH 7.4 with KOH] and quantified via Bradford assay. The quantified protein was further diluted with HBSS-HEPES buffer to achieve a 100 μg/mL concentration. Membrane suspension was plated in a 96-well plate at 200 μLs/well ±10 μM phentolamine HCl (Sigma, cat. #P-7547) and [Methyl-^3H] Rauwolscine (15 nM to 0.05 nM; PerkinElmer, cat. #NET722250UC). The assay plate was slowly shaken and incubated at 25° C. for ninety minutes. Immediately following the above incubation, the assays were terminated by vacuum filtration over GF/B filters. Filters were then washed with 4° C. HBSS-HEPES buffer. The incorporated [Methyl-^3H] Rauwolscine was determined using a Microbeta 1450B liquid scintillation counter after the plates had dried overnight.

[2] = system: visual acuity in normal DB rabbits; assay: Visual enhancement model, spatial sweep visual evoked potential (sVEP) acuity; assay type: in vivo, rabbit; conditions: intravenous route, 10-30 minutes post-dose
Procedure: Spatial sweep visual evoked potential (sVEP) acuity. Spatial sVEP acuity was assessed with PowerDiva software version 1.8. Recordings were made bilaterally in conscious animals.

[3] = Drug level in the retina with continuous subcutaneous pump dosing; assay type: in vivo, rat; conditions: 0.3 mg/kg/day and 1 mg/kg/day, rats

SMILES	EC50 (alpha 2A receptor) [nM]	Relative Efficacy (alpha 2A receptor; efficacy relative to the full agonist brimonidine)	damage caused by blue light (retinal thickness by OCT) [1]	Percent of Bmax Decrease (α2A-adrenergic receptor) [%]	down-regulation of alpha2A receptor / receptor density (α2A-adrenergic receptor)	visual acuity (sVEP) [2]	drug levels in the retina [3] [ng/g]
c1cnc2c(c1)CC[C@H](Cc1c[nH]cn1)C2 [(S)-(+)-7-(1H-Imidazol-4-ylmethyl)-5,6,7,8-tetrahydro-quinoline]	< 1	0.6	significantly reduced the damage caused by blue light	−25	induces very little down-regulation of alpha2A receptor	enhances visual acuity	1.3
Brc1c(N=C2NCCN2)ccc2nccnc12 [Brimonidine, (5-bromo-quinoxalin-6-yl)-imidazolidin-2-ylidene-amine, reference compound]				−45	induced a strong reduction in the alpha 2A receptor density		
